From PMC10838953
Several values for one entry are separate records, joined by “and”; a condition that tells them apart may be missing. Equal values may be shown once.

Experiments:
HEK293 cell line = details: nontumor HEK293 cell line; cited from earlier work
HeLa cells = details: cited from earlier work
AKT (S129) = details: 786-O cells; 48 h
caspase-3 in 786-O cells = details: 72 h, compounds at 20 μM
[1] = system: AKT (S129) in 786-O cells
[2] = system: tumor slices of clear cell renal carcinoma (786-O-luc xenograft); details: 10 μM CX-4945, 5 μM AB668

O=C(CCC(=O)NCCc1ccc(Cl)c(Cl)c1)NCCCCn1cnc2c(Br)c(Br)c(Br)c(Br)c21 [KN2]
cytotoxicity (HEK293 cell line): 16 µM
cytotoxicity (HeLa cells): 6 µM

CCC(=O)Nc1cc(Nc2cc(NC3CC3)n3ncc(C#N)c3n2)ccc1C [SGC-CK2-1]
CK2 inhibition 8 h after inhibitor removal (CK2 in 786-O cells): persisted
phosphorylation of S129AKT (AKT (S129)): decreased, in a dose-dependent manner
caspase-3 activation (caspase-3 in 786-O cells): did not activate caspase-3
pAKTS129 / AKT band quantification [1]: 0.4

O=C(O)c1ccc2c(c1)nc(Nc1cccc(Cl)c1)c1ccncc12 [CX-4945, silmitasertib]
NES: Cell recruitment (pro-inflammatory response) (786-O cells): 1.563
NES: Constitutive Signaling by NOTCH1 HD+PEST Domain Mutants (786-O cells): -1.497
NES: Constitutive Signaling by NOTCH1 PEST Domain Mutants (786-O cells): -1.497
NES: Export of Viral Ribonucleoproteins from Nucleus (786-O cells): 1.432
NES: G alpha (12/13) signalling events (786-O cells): -1.412
NES: HCMV Late Events (786-O cells): 1.511
NES: Infection with Mycobacterium tuberculosis (786-O cells): 1.475
NES: Interferon alpha/beta signaling (786-O cells): -1.554
NES: Purinergic signaling in leishmaniasis infection (786-O cells): 1.563
NES: Response of Mtb to phagocytosis (786-O cells): 1.605
NES: Rev-mediated nuclear export of HIV RNA (786-O cells): 1.427
NES: Signaling by NOTCH1 HD+PEST Domain Mutants in Cancer (786-O cells): -1.497
NES: Signaling by NOTCH1 PEST Domain Mutants in Cancer (786-O cells): -1.497
NES: Signaling by NOTCH1 in Cancer (786-O cells): -1.497
NES: Uptake and actions of bacterial toxins (786-O cells): 1.428
enrichmentScore: Cell recruitment (pro-inflammatory response) (786-O cells): 0.6607
enrichmentScore: Constitutive Signaling by NOTCH1 HD+PEST Domain Mutants (786-O cells): -0.4974
enrichmentScore: Constitutive Signaling by NOTCH1 PEST Domain Mutants (786-O cells): -0.4974
enrichmentScore: Export of Viral Ribonucleoproteins from Nucleus (786-O cells): 0.45
enrichmentScore: G alpha (12/13) signalling events (786-O cells): -0.5156
enrichmentScore: HCMV Late Events (786-O cells): 0.4357
enrichmentScore: Infection with Mycobacterium tuberculosis (786-O cells): 0.5692
enrichmentScore: Purinergic signaling in leishmaniasis infection (786-O cells): 0.6607
enrichmentScore: Response of Mtb to phagocytosis (786-O cells): 0.6338
enrichmentScore: Rev-mediated nuclear export of HIV RNA (786-O cells): 0.4457
enrichmentScore: Signaling by NOTCH1 HD+PEST Domain Mutants in Cancer (786-O cells): -0.4974
enrichmentScore: Signaling by NOTCH1 PEST Domain Mutants in Cancer (786-O cells): -0.4974
enrichmentScore: Signaling by NOTCH1 in Cancer (786-O cells): -0.4974
enrichmentScore: Uptake and actions of bacterial toxins (786-O cells): 0.5866
NES: SARS-CoV-1 activates/modulates innate immune responses (786-O cells; R-HSA-9692916, CX4945 vs DMSO): 1.374
enrichmentScore: SARS-CoV-1 activates/modulates innate immune responses (786-O cells; R-HSA-9692916, CX4945 vs DMSO): 0.4726
NES: SARS-CoV-1 modulates host translation machinery (786-O cells; R-HSA-9735869, CX4945 vs DMSO): -1.391
enrichmentScore: SARS-CoV-1 modulates host translation machinery (786-O cells; R-HSA-9735869, CX4945 vs DMSO): -0.4335
CK2 inhibition 8 h after inhibitor removal (CK2 in 786-O cells): CK2 activity was restored to its initial level
phosphorylation of S129AKT (AKT (S129)): decreased, in a dose-dependent manner
caspase-3 activation (caspase-3 in 786-O cells): induced caspase-3 activation
pAKTS129 / AKT band quantification [1]: 0.3 and 0.4
cell viability of tumor slices [2]: had no effect

CN[C@@H]1C[C@H]2O[C@@](C)([C@@H]1OC)n1c3ccccc3c3c4c(c5c6ccccc6n2c5c31)C(=O)NC4 [staurosporine]
caspase-3 activation (caspase-3 in 786-O cells): induced caspase-3 activation
